# Results taken from ChEMBL document CHEMBL4680139, “Antiproliferative activity of diarylnaphthylpyrrolidine derivative via dual target inhibition” (Eur J Med Chem, 2020).
# Experiments:
# MCF7 [1] = assay: Induction of cell cycle arrest in human MCF-7 cells assessed as accumulation at S phase at 4.33 uM by propidium iodide staining based flow cytometry (reference value: 6.9%); assay type: functional
# MDA-MB-231 [2] = assay: Induction of cell cycle arrest in human MDA-MB-231 cells assessed as accumulation at G0/G1 phase at 2.6 uM by propidium iodide staining based flow cytometry (reference value: 77.7 +/- 0.28%); assay type: functional
# [3] = Toxicity in Swiss albino mouse assessed as WBC level in blood at 300 mg/kg, po administered as single dose (reference value: 17.06 +/- 1.33x10^3/mm3); assay type: organism-based; conditions: in vivo
# MDA-MB-231 [4] = assay: Induction of apoptosis in human MDA-MB-231 cells assessed as proportion of viable cells at 10.42 uM measured after 24 hrs by Annexin V-FITC/propidium iodide staining based flow cytometry (reference value: 99%); assay type: functional
# MDA-MB-231 [5] = assay: Induction of apoptosis in human MDA-MB-231 cells assessed as proportion of necrotic cells at 10.42 uM measured after 24 hrs by Annexin V-FITC/propidium iodide staining based flow cytometry (reference value: 0.2%); assay type: functional
# [6] = Toxicity in Swiss albino mouse assessed as cholesterol level in serum at 5 mg/kg, po administered as single dose (reference value: 103.62 +/-7.45 mg/dl); assay type: organism-based; conditions: in vivo
# MDA-MB-231 [7] = assay: Induction of apoptosis in human MDA-MB-231 cells assessed as proportion of early apoptotic cells at 2.6 uM measured after 24 hrs by Annexin V-FITC/propidium iodide staining based flow cytometry (reference value: 0.2%); assay type: functional
# MCF7 [8] = assay: Antiproliferative activity against human MCF-7 cells assessed as proportion of live cells at 6.25 ug/ml measured after 3 weeks by crystal violet staining based soft agar colony formation assay (reference value: 100%); assay type: functional; conditions: dose 6.25 µg/ml
# MCF7 [9] = assay: Antiproliferative activity against human MCF-7 cells assessed as proportion of dead cells at 6.25 ug/ml measured after 3 weeks by crystal violet staining based soft agar colony formation assay; assay type: functional; conditions: dose 6.25 µg/ml
# MCF7 [10] = assay: Induction of cell cycle arrest in human MCF-7 cells assessed as accumulation at G0/G1 phase at 8.66 uM by propidium iodide staining based flow cytometry (reference value: 74.5%); assay type: functional
# [11] = Toxicity in Swiss albino mouse assessed as RBC level in blood at 50 mg/kg, po administered as single dose (reference value: 10.56 +/- 1.22x10^6/mm3); assay type: organism-based; conditions: in vivo
# MDA-MB-231 [12] = assay: Antiproliferative activity against human MDA-MB-231 cells assessed as inhibition of cell growth measured after 48 hrs by SRB assay; assay type: functional, cell-based; conditions: MDA-MB-231, 48 h, read-out: IC50
# MCF7 [13] = assay: Antiproliferative activity against human MCF-7 cells assessed as inhibition of colony formation measured after 3 weeks by crystal violet staining based soft agar colony formation assay; assay type: functional, cell-based
# [14] = Toxicity in Swiss albino mouse assessed as ALP level in serum at 300 mg/kg, po administered as single dose (reference value: 195.8 +/-12.06 U/L); assay type: organism-based; conditions: in vivo
# [15] = Toxicity in Swiss albino mouse assessed as WBC level in blood at 50 mg/kg, po administered as single dose (reference value: 17.06 +/- 1.33x10^3/mm3); assay type: organism-based; conditions: in vivo
# [16] = Toxicity in Swiss albino mouse assessed as RBC level in blood at 300 mg/kg, po administered as single dose (reference value: 10.56 +/- 1.22x10^6/mm3); assay type: organism-based; conditions: in vivo
# MCF7 [17] = assay: Induction of cell cycle arrest in human MCF-7 cells assessed as accumulation at G2/M phase at 4.33 uM by propidium iodide staining based flow cytometry (reference value: 15.2%); assay type: functional
# MDA-MB-231 [18] = assay: Induction of cell cycle arrest in human MDA-MB-231 cells assessed as accumulation at S phase at 5.21 uM by propidium iodide staining based flow cytometry (reference value: 11.35 +/- 0.07%); assay type: functional
# [19] = Toxicity in Swiss albino mouse assessed as SGPT level in serum at 5 mg/kg, po administered as single dose (reference value: 21.81 +/-2.1 U/L); assay type: organism-based; conditions: in vivo
# MCF7 [20] = assay: Antiproliferative activity against human MCF-7 cells assessed as proportion of live cells at 25 ug/ml measured after 3 weeks by crystal violet staining based soft agar colony formation assay (reference value: 100%); assay type: functional; conditions: dose 25 µg/ml
# MCF7 [21] = assay: Antiproliferative activity against human MCF-7 cells assessed as proportion of dead cells at 50 ug/ml measured after 3 weeks by crystal violet staining based soft agar colony formation assay; assay type: functional; conditions: dose 50 µg/ml
# MCF7 [22] = assay: Induction of apoptosis in human MCF-7 cells at 8.66 uM by propidium iodide staining based flow cytometry (reference value: 2.1%); assay type: functional
# [23] = Inhibition of bovine brain tubulin polymerisation measured by turbidometric method; assay type: tissue-based, Bos taurus
# [24] = Toxicity in Swiss albino mouse assessed as SGOT level in serum at 50 mg/kg, po administered as single dose (reference value: 22.12 +/-1.91 U/L); assay type: organism-based; conditions: in vivo
# MDA-MB-231 [25] = assay: Induction of apoptosis in human MDA-MB-231 cells assessed as proportion of late apoptotic cells at 10.42 uM measured after 24 hrs by Annexin V-FITC/propidium iodide staining based flow cytometry (reference value: 0.5%); assay type: functional
# [26] = Toxicity in Swiss albino mouse assessed as absolute and relative liver weight at 5 to 300 mg/kg, po administered as single dose; assay type: organism-based; conditions: in vivo, dose 5-300 mg/kg
# [27] = Toxicity in Swiss albino mouse assessed as SGOT level in serum at 5 mg/kg, po administered as single dose (reference value: 22.12 +/-1.91 U/L); assay type: organism-based; conditions: in vivo
# THP-1 = assay: Antiproliferative activity against human THP-1 cells assessed as inhibition of cell growth measured after 48 hrs by SRB assay; assay type: functional, cell-based; conditions: THP-1, 48 h
# [28] = Toxicity in Swiss albino mouse assessed as albumin level in serum at 300 mg/kg, po administered as single dose (reference value: 0.56 +/-0.02 g/dl); assay type: organism-based; conditions: in vivo
# MDA-MB-231 [29] = assay: Induction of apoptosis in human MDA-MB-231 cells assessed as proportion of late apoptotic cells at 5.21 uM measured after 24 hrs by Annexin V-FITC/propidium iodide staining based flow cytometry (reference value: 0.5%); assay type: functional
# [30] = molecular target: DNA topoisomerase 2-alpha (Homo sapiens) (UniProt P11388); assay: Inhibition of DNA-topoisomerase 2 in human MCF7 cells using kinetoplast DNA as substrate at 4.33 uM measured by ELISA; assay type: cell-based
# [31] = Toxicity in Swiss albino mouse assessed as creatinine level in serum at 300 mg/kg, po administered as single dose (reference value: 0.27+/-0.02 mg/dl); assay type: organism-based; conditions: in vivo
# [32] = Toxicity in Swiss albino mouse assessed as body weight at 50 mg/kg, po administered as single dose (reference value: 31.62 +/- 1.64 gms); assay type: organism-based; conditions: in vivo
# [33] = Toxicity in Swiss albino mouse assessed as triglyceride level in serum at 50 mg/kg, po administered as single dose (reference value: 78.34 +/-2.99 mg/dl); assay type: organism-based; conditions: in vivo
# Chain of DNA topoisomerase 2-alpha (Homo sapiens) (P11388 whole entry): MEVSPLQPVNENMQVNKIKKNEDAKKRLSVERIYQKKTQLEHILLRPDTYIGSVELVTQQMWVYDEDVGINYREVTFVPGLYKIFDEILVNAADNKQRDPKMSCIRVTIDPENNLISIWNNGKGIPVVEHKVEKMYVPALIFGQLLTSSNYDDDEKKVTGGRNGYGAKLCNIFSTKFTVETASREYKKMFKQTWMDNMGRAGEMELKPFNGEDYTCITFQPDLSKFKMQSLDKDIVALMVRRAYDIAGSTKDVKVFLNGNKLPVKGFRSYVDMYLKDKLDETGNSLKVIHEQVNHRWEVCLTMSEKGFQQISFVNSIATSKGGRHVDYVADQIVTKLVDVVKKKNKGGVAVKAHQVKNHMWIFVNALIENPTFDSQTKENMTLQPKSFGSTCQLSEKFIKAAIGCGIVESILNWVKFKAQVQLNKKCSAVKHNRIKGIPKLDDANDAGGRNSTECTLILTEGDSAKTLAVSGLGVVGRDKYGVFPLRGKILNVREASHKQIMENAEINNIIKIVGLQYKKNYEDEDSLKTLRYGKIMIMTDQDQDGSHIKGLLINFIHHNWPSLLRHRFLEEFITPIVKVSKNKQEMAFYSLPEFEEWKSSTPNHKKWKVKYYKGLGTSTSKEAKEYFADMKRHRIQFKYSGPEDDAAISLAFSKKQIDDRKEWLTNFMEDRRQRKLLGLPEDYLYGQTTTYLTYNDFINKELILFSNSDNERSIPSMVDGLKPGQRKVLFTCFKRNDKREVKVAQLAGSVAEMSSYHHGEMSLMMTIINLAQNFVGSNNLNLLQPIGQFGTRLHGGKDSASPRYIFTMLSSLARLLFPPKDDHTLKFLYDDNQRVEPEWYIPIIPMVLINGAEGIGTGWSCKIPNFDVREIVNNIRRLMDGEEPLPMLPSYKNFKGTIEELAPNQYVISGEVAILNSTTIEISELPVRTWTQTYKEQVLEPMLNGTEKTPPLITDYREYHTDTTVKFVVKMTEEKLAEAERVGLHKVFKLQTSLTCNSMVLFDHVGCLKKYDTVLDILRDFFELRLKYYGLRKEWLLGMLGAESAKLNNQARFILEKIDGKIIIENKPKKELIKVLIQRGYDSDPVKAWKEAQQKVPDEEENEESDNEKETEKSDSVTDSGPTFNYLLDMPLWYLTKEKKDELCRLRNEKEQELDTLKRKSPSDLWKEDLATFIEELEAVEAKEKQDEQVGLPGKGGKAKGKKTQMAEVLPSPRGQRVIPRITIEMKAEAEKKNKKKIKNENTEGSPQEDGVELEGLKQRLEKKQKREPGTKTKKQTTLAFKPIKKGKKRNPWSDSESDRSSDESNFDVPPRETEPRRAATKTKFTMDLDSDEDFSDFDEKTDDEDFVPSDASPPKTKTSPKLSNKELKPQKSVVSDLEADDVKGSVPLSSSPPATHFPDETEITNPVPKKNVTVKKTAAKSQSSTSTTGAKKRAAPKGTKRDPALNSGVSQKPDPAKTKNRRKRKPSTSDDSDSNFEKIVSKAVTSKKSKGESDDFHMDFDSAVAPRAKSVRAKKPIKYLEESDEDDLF
compound,measurement,setting,value
COc1ccc(C(c2ccccc2OCCN2CCCC2)c2cccc3ccccc23)c(OC)c1OC (stereo not given),Activity,MCF7 [1],13.9%
same,Activity,MDA-MB-231 [2],80.2%
same,Activity,[3],7.19 10^3/mm3
same,Activity,MDA-MB-231 [4],49.4%
same,Activity,MDA-MB-231 [5],14.7%
same,Activity,[6],111.17 mg/dL
same,Activity,MDA-MB-231 [7],0.8%
same,Activity,MCF7 [8],70.77%
same,Activity,MCF7 [9],29.23%
same,Activity,MCF7 [10],66.5%
same,Activity,[11],9.84 million/mm3
same,IC50,MDA-MB-231 [12],5.21 µM
same,inhibition,MCF7 [13],Dose-dependent effect
same,IC50,"MCF7 [13]; MCF7, 504 h",11.2 µg/mL
same,Activity,[14],137.7 U/L
same,Activity,[15],13.46 10^3/mm3
same,Activity,[16],11.64 million/mm3
same,Activity,MCF7 [17],13.4%
same,Activity,MDA-MB-231 [18],7.9%
same,Activity,[19],21.18 U/L
same,Activity,MCF7 [20],20.64%
same,Activity,MCF7 [21],87.02%
same,Activity,MCF7 [22],11.4%
same,IC50,[23],5.65 µM
same,Activity,[24],25.42 U/L
same,Activity,MDA-MB-231 [25],34.2%
same,Activity,[26],Non-Toxic
same,Activity,[27],27.32 U/L
same,IC50,THP-1,12.6 µM
same,Activity,[28],0.54 g/dL
same,Activity,MDA-MB-231 [29],3.5%
same,inhibition,[30],0.22%
same,Activity,[31],0.2 mg/dL
same,Activity,[32],30.44 g
same,Activity,[33],94.42 mg/dL
